Values of other authors as cited in patent US20110071071A1, “PSMB10: A DIAGNOSIS MARKER AND THERAPEUTIC TARGET OF CHRONIC REJECTION” (priority 2008, published 2011).

Legend:
[1] = target: T1, chymotrypsin-like activity of the purified 20S proteasome (Homo sapiens, UniProt P28074); conditions: in vitro
T1 sequence (P28074 60-263): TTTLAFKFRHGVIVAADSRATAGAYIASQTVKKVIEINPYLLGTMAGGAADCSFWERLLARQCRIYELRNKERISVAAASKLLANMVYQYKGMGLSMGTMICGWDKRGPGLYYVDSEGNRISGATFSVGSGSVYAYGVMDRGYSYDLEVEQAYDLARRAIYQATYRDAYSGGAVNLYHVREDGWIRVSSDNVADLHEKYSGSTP

20S proteasome = 20S proteasome (Homo sapiens, UniProt P28072+P28074+Q99436); conditions: all three catalytic sites
[2] = test system: murine neuroblastoma cell line Neuro-2a; conditions: Neuro-2a cells

O=C(OC1Cc2c(O)cc(O)cc2OC1c1cc(O)c(O)c(O)c1)c1cc(O)c(O)c(O)c1 (single isomer, unassigned; (-)) [(−)-EGCG, (−)-epigallocatechin 3-gallate]
inhibition of chymotrypsin-like (CT-L) activity of the 20S proteasome [1]: inhibiting the chymotrypsin-like activity

C[C@@]12OC(=O)[C@]1([C@@H](O)[C@@H]1C=CCCC1)NC(=O)[C@@H]2CCCl [NPI-0052, salinosporamide A]
20S proteasome inhibition (20S proteasome): highly potent and selective 20S proteasome inhibitor with irreversible activity against all three catalytic sites

CC(=O)N[C@@H](CSC(=O)[C@]1([C@@H](O)C(C)C)NC(=O)[C@H](C)[C@@H]1O)C(=O)O [lactacystin]
neurite outgrowth [2]: induce neurite outgrowth
